How the values were obtained:
Cytochrome P450 2C9 = Cytochrome P450 2C9 (Homo sapiens, UniProt P11712); assay: Activity of recombinant human CYP2C9 expressed in Saccharomyces cerevisiae AH22 cells assessed as enzyme-mediated sesamin dicatechol formation after 15 mins by HPLC analysis in presence of NADPH; assay type: ADME, cell-based; settings: ah22, 0.25 h
UGT [1] = assay: Drug metabolism in human liver microsomes assessed as UGT-mediated glucuronidation after 10 to 30 mins by HPLC analysis in presence of UDP-GlcUA; assay type: ADME
Cytochrome P450 2C19 [2] = target: T1, Cytochrome P450 2C19 (Homo sapiens, UniProt P33261); assay: Activity of recombinant human CYP2C19 expressed in Saccharomyces cerevisiae AH22 cells assessed as enzyme-mediated sesamin dicatechol formation after 15 mins by HPLC analysis in presence of NADPH; assay type: ADME, cell-based; settings: ah22, 0.25 h
T1 sequence (P33261 whole entry): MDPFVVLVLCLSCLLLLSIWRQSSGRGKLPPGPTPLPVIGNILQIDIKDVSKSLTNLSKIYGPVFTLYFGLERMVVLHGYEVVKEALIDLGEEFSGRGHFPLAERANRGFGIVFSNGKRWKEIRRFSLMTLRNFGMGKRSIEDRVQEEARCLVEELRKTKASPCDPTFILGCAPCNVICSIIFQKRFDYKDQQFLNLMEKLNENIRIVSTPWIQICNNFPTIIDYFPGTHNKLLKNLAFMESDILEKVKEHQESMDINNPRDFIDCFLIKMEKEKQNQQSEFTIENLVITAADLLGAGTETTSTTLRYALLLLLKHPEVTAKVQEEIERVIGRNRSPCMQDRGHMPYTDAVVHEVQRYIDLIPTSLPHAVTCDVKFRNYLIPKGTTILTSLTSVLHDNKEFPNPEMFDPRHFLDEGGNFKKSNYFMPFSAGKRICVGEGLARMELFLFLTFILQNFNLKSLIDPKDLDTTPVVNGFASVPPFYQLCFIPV

[3] = Drug metabolism in Sprague-Dawley rat liver microsomes assessed as UGT-mediated glucuronidation per mg of protein after 10 to 30 mins by HPLC analysis in presence of UDP-GlcUA; assay type: ADME
[4] = Drug metabolism in human liver microsomes assessed as UGT-mediated glucuronidation per mg of protein after 10 to 30 mins by HPLC analysis in presence of UDP-GlcUA; assay type: ADME
Cytochrome P450 2C19 [5] = target: T1, Cytochrome P450 2C19; assay: Activity of recombinant human CYP2C19 expressed in Saccharomyces cerevisiae AH22 cells assessed as enzyme-mediated compound formation treated with sesamin at 2 to 20 uM after 15 mins by HPLC analysis in presence of NADPH; assay type: ADME, cell-based; settings: ah22, 0.25 h
Liver microsome = assay: Drug level in human liver microsomes treated with sesamin after 30 mins by HPLC analysis in presence of NADPH; assay type: ADME; settings: 0.5 h
CYP450 [6] = assay: Drug metabolism in human liver microsomes assessed as CYP450-mediated catecholization after 10 to 30 mins by HPLC analysis in presence of NADPH; assay type: ADME
CYP450 [7] = assay: Drug metabolism in Sprague-Dawley rat liver microsomes assessed as CYP450-mediated catecholization after 10 to 30 mins by HPLC analysis in presence of NADPH; assay type: ADME
UGT [8] = assay: Drug metabolism in Sprague-Dawley rat liver microsomes assessed as UGT-mediated glucuronidation after 10 to 30 mins by HPLC analysis in presence of UDP-GlcUA; assay type: ADME
[9] = Drug metabolism in human liver microsomes assessed as CYP450-mediated catecholization per mg of protein after 10 to 30 mins by HPLC analysis in presence of NADPH; assay type: ADME
[10] = Drug metabolism in Sprague-Dawley rat liver microsomes assessed as CYP450-mediated catecholization per mg of protein after 10 to 30 mins by HPLC analysis in presence of NADPH; assay type: ADME

Sequence of Cytochrome P450 2C9 (P11712 whole entry): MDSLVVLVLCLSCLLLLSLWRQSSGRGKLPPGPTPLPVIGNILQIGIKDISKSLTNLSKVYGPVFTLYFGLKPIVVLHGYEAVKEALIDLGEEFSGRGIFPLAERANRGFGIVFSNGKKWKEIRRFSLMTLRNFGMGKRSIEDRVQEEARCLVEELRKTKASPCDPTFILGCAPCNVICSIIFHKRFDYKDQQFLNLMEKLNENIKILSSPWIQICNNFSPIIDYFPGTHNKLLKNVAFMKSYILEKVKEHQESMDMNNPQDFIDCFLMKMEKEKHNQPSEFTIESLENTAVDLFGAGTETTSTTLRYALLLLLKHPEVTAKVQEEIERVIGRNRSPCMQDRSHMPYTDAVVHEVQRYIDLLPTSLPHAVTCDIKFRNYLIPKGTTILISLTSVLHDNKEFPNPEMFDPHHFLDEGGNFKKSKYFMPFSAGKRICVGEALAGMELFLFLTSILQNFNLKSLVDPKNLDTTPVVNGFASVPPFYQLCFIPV

- Drug metabolism (Cytochrome P450 2C9): 0.83 nmol/min
- Km (UGT [1]): 18 µM
- Drug metabolism (Cytochrome P450 2C19 [2]): 10.4 nmol/min
- Vmax [3]: 1.1 nmol/min/mg
- Vmax [4]: 6 nmol/min/mg
- Drug metabolism (Cytochrome P450 2C19 [5]): metabolite_detected
- Drug metabolism (Liver microsome): metabolite_detected
- Km (CYP450 [6]): 18.8 µM
- Km (CYP450 [7]): 5.3 µM
- Km (UGT [8]): 20.3 µM
- Vmax [9]: 0.44 nmol/min/mg
- Vmax [10]: 3.7 nmol/min/mg
Compound: Oc1ccc([C@H]2OC[C@H]3[C@@H]2CO[C@@H]3c2ccc3c(c2)OCO3)cc1O
